Measured values reported in patent publication US6281214A, “Biphenyl derivatives” (Eisai Co., Ltd, priority 1994, dated 2001).
Where two headings read alike, the source gives them in different places.

Columns and labels:
Design in all cases: species or system SD rats
serotonin S2 receptor = target: T1, serotonin S2 receptor (Rattus norvegicus, UniProt P14842); assay: serotonin S2 receptor binding test ([3H] Ketanserin Binding Test); conditions: 1 nM [3H] Ketanserin, rat cortex, 37° C., 15 minutes
T1 construct: The receptor fraction prepared from the cortex was molten and suspended; from tissue; host or cells: cerebral cortex of SD rats (membrane fraction)
Procedure: (§1) The compounds of the present invention were subjected to each of serotonin S2 receptor binding test, dopamine D2 receptor binding test and adrenergic α1 receptor binding test.
(§2) The following reagents were used in this test.
(§3) These reagents and samples were each dissolved in 10% ethanol before use. Among them, water-insoluble compounds were each dissolved in ethanol and the obtained solution was diluted with distilled water to an ethanol concentration of 10%. Further, Methylsergide maleate was used in a state dissolved in distilled water.
(§4) SD rats aged 6 to 8 weeks were used.
(§5) SD rats were each slaughtered with a guillotine to extirpate its cerebrum. The cortex and corpus striatum were separated from the cerebrum. The former was used in serotonin S2 receptor binding test and adrenergic α1, receptor binding test, while the latter was used in dopamine D2 receptor binding test.
(§6) The cortex was homogenized in a 0.32 M sucrose solution in an amount ten times the wet weight of the cortex by the use of a teflon glass homogenizer and the resulting mixture was centrifuged at 10,000×G for 20 minutes. The obtained sediment was suspended in 50 mM Tris hydrochloride (pH 7.4) in an amount ten times the initial wet weight of the cortex by the use of a histocothrom, and the obtained suspension was centrifuged at 10,000×G for 20 minutes. This operation was repeated twice. The obtained sediment was suspended in 50 mM Tris hydrochloride (pH 7.4) in an amount 20 times the initial wet weight of the cortex by the use of a histocothrom. The suspension thus prepared was used as a receptor fraction. This receptor fraction was stored at -80° C. until use.
4. [^3 ] Ketanserin Binding Test
The receptor fraction prepared from the cortex was molten and suspended by the use of a histocothrom. The resulting suspension was incubated together with 1 nM-[^3 H] Ketanserin at 37° C. for 15 minutes. The resulting reaction system was filtered through a Whatman GF/B glass filter with an MR-30R type cell harvester mfd. by Blandel. The resulting filter was washed twice with 5 ml of 50 mM Tris hydrochloride (ph 7.4) cooled with ice and the radioactivity of the Ketanserin bound the receptor was determined by the use of a liquid scintillation counter with 5 ml of ACS II. The binding detected in the presence of […] of Methylsergide was regarded as nonspecific binding.
(§7) Each IC50 value was calculated by the probit method and each Ki value was determined by the following formula: [formula]
(§8) In the above formula, C represents the concentration of radioligand, and Kd represents the affinity of radioligand for the receptor as determined by the Scatchard analysis.

adrenergic α1 receptor = adrenergic α1 receptor binding test ([3H] Prazosin Binding Test); conditions: 1 nM [3H] Prazosin, rat cortex, room temperature, 60 minutes
Procedure: as §1, §2, §3, §4, §5, §6, §7, §8
6. [^3 H] Prazosin Binding Test
(§9) This test was conducted in the same manner as that of the binding test of [^3 H] Ketanserin except that the receptor fraction prepared from the cortex was molten and suspended with a histocothrom, and the obtained suspension was incubated together with 1 nM-[^3 H] Prazosin at room temperature for 60 minutes and that the binding detected in the presence of 10 μl of Phentolamine was regarded as nonspecific binding.

dopamine D2 receptor = target: T2, dopamine D2 receptor (Rattus norvegicus, UniProt P61169); assay: dopamine D2 receptor binding test ([3H] Spiperone Binding Test); conditions: 1 nM [3H] Spiperone, rat corpus striatum, room temperature, 60 minutes
T2 construct: the receptor fraction prepared from the corpus striatum was molten and suspended; from tissue; host or cells: corpus striatum of SD rats (membrane fraction)
Procedure: as §1, §2, §3, §4, §5
On the other hand, the corpus striatum was homogenized in a 0.32 M sucrose solution in an amount ten times the wet weight of the corpus striatum by the use of a teflon glass homogenizer and the obtained mixture was centrifuged at 1,000×G for 20 minutes. The obtained supernatant was centrifuged at 10,000×G for 20 minutes. The obtained sediments were suspended together in 50 mM Tris hydrochloride (pH 7.4) in an amount ten times the initial wet weight of the corpus striatum by the use of a histocothrom, and the obtained suspension was centrifuged at 10,000×G for 20 minutes. This operation was repeated thrice. The resulting sediment was suspended in 50 mM Krebs-Tris (pH 7.4) in an amount 100 times the initial wet weight of the corpus striatum by the use of a histocothrom. The obtained suspension was used as a receptor fraction. This receptor fraction was stored at -80° C. until use.
as §7, §8
5. [^3 H] Spiperone Binding Test
as §9, with “corpus striatum” for “cortex”, “H], Spiperone” for “H] Prazosin”, “Spiperone” for “Phentolamine”

[1] = read-out: Ki value, dopamine D2 receptor

T2 sequence (P61169 whole entry): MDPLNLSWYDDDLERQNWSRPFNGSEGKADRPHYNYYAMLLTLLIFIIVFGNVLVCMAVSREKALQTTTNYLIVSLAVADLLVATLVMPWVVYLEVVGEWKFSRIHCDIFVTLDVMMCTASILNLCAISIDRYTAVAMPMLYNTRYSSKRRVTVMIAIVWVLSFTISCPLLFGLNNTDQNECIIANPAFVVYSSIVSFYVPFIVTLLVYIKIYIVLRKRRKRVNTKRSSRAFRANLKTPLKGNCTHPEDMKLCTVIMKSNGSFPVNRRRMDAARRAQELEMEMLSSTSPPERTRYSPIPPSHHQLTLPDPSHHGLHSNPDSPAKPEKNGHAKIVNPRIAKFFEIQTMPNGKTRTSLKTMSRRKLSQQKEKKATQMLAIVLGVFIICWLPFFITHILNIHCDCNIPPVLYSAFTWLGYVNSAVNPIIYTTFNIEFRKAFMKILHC
T1 sequence (P14842 whole entry): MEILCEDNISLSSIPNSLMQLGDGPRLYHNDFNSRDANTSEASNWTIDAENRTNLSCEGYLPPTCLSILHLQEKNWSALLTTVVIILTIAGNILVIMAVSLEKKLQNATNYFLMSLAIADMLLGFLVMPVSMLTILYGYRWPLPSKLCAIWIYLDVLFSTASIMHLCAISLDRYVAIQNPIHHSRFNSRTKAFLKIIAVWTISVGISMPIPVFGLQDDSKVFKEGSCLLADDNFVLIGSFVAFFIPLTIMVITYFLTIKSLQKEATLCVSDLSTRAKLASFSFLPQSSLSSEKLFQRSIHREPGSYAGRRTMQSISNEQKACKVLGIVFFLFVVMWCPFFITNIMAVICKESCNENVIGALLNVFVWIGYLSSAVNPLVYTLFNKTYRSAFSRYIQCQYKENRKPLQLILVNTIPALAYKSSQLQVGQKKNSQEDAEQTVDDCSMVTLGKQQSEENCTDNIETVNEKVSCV

Compound	Ki (serotonin S2 receptor)	Ki (adrenergic α1 receptor)	Ki (dopamine D2 receptor; [1])	Ki (dopamine D2 receptor; Ki value, dopamine D2 receptor)
CCC(F)c1cc(N2CCN(CC)CC2)cc(-c2ccccc2C)c1C#N (centres unmarked) [Example 164, 1-Ethyl-4-[3-(2-tolyl)-4-cyano-5-(1-fluoropropyl)]phenylpiperazine]	12 nM	> 1000 nM	1.62 nM	–
CCN1CCN(c2cc(-c3ccccc3)c(OC)c([S+](C)[O-])c2)CC1 (centres unmarked) [Example 104, 1-Ethyl-4-(3-phenyl-4-methoxy-5-methanesulfinyl)phenylpiperazine]	24.5 nM	> 1000 nM	70.1 nM	–
CCN1CCN(c2cc(-c3ccccc3)c(Cl)c(S(=O)(=O)CC)c2)CC1 [Example 139, 1Ethyl-4-(3-phenyl-4-chloro-5-ethanesulfonyl)phenylpiperazine]	5.38 nM	68.7 nM	2.34 nM	–
CCN1CCN(c2cc(-c3ccc(F)cc3)c(OC)c(C(C)C)c2)CC1 [Example 78, 1Ethyl-4-[3-(4-fluorophenyl)-4-methoxy-5-isopropyl]phenylpiperazine]	33.2 nM	74.8 nM	4.22 nM	–
CCC(F)c1cc(N2CCN(C)CC2)cc(-c2ccccc2)c1Cl (centres unmarked) [Example 206]	4.29 nM	47.8 nM	–	1.06 nM
CCC(F)c1cc(N2CCN(CC)CC2)cc(-c2c(C)cccc2C)c1Cl (centres unmarked) [Example 215, 1-Ethyl-4-[3-(2,6-xylyl)-4-chloro-5-(1-fluoropropyl)]phenylpiperazine]	15.3 nM	–	2.28 nM	–
CCCS(=O)(=O)Nc1cc(N2CCN(CC)CC2)cc(-c2ccccc2)c1Cl [Example 184, 1-Ethyl-4-(3-phenyl-4-chloro-5-propanesulfonylamino)phenylpiperazine]	2.09 nM	4.52 nM	0.17 nM	–
CCN1CCN(c2cc(C(=O)Cc3ccc(F)cc3)c(OC)c(-c3ccccc3)c2)CC1 [Example 93, 1-Ethyl-4-[3-phenyl-4-methoxy-5-(4-fluorophenyl)acetyl]phenylpiperazine]	1.31 nM	719 nM	28 nM	–
CCN1CCN(c2cc(-c3ccccc3)c(OC)c(C(F)Cc3ccccn3)c2)CC1 (centres unmarked) [Example 99, 1-Ethyl-4-{3-phenyl-4-methoxy-5-[1-fluoro-2-(2-pyridyl)ethyl]}phenylpiperazine]	170 nM	> 1000 nM	2.93 nM	–
COc1c(C(=O)Cc2ccccc2)cc(N2CCN(Cc3ccccc3)CC2)cc1-c1ccccc1 [Example 126, 1-Benzyl-4-(3-phenyl-4-methoxy-5-phenylacetyl)phenylpiperazine]	27.3 nM	> 1000 nM	54.6 nM	–
CCN1CCN(c2cc(-c3ccccc3C)c(Cl)c(C(F)(F)CC)c2)CC1 [Example 55, 1-Ethyl-4-[3-(2-tolyl)-4-chloro-5-(1,1-difluoropropyl)]phenylpiperazine]	113 nM	> 1000 nM	3.1 nM	–
CCC(F)c1cc(N2CCN(CC)CC2)cc(-c2ccccc2)c1Cl (centres unmarked) [Example 127, 1-Ethyl-4-[3-phenyl-4-chloro-5-(1-fluoropropyl)]phenylpiperazine]	11.4 nM	65.9 nM	1.04 nM	–
CCN1CCN(c2cc(-c3ccccc3)c(OC)c(N(C)S(=O)(=O)CC)c2)CC1 [Example 122, 1-Ethyl-4-[3-phenyl-4-methoxy-5-(N-ethanesulfonyl-N-methylamino)]phenylpiperazine]	123 nM	68.1 nM	45.9 nM	–
CCC(F)c1cc(N2CCN(CC)CC2)cc(-c2ccccc2)c1OC (centres unmarked) [Example 88, 1-Ethyl-4-[3-phenyl-4-methoxy-5-(1-fluoropropyl)]phenylpiperazine]	8.33 nM	493 nM	7.35 nM	–
CC[C@@H](F)c1cc(N2CCN(CC)CC2)cc(-c2ccc(F)cc2C)c1Cl [Example 212, 1-Ethyl-4-{3-[2-(4-fluorotolyl)]-4-chloro-5-[1-(R)-fluorophenyl]}phenylpiperazine]	1020 nM	–	3.9 nM	–
CC[C@@H](F)c1cc(N2CCN(C)CC2)cc(-c2ccccc2CF)c1Cl [Example 209]	42.7 nM	–	3.9 nM	–
CCc1ccccc1-c1cc(N2CCN(CC)CC2)cc(C(F)CC)c1Cl (centres unmarked) [Example 217, 1-Ethyl-4-[3-(2-ethylphenyl)-4-chloro-5-(1-fluoropropyl)]phenylpiperazine]	25.5 nM	–	3.57 nM	–
CCS(=O)(=O)c1cc(N2CCN(CCF)CC2)cc(-c2ccc(F)cc2)c1OC [Example 203, 1-(2-Fluoroethyl)-4-[3-(4-fluorophenyl)-4-methoxy-5-ethanesulfonyl]phenylpiperazine]	54.8 nM	–	–	–
CCN1CCN(c2cc(NS(=O)(=O)c3ccccc3)c(OC)c(-c3ccccc3)c2)CC1 [Example 120]	17.4 nM	–	0.36 nM	–
CCS(=O)(=O)c1cc(N2CCNCC2)cc(-c2ccc(F)cc2)c1OC [Example 202, 1-[3-(4-Fluorophenyl)-4-methoxy-5-ethanesulfonyl]phenylpiperazine]	6.33 nM	–	–	90.5 nM
CCC(Cl)c1cc(N2CCN(CC)CC2)cc(-c2ccccc2Cl)c1Cl (centres unmarked) [Example 205, 1-Ethyl-4-[3-(2-chlorophenyl)-4-chloro-5-(1-chlorophenyl0phenylpiperazine)]phenylpiperazine]	51.2 nM	–	2.83 nM	–
CC[C@@H](F)c1cc(N2CCN(CCO)CC2)cc(-c2ccccc2C(F)(F)F)c1Cl [Example 219, 1-(2-Hydroxyethyl)-4-{3-(2-trifluoromethylphenyl)-4-chloro-5-[1-(R)-fluoropropyl]}phenylpiperazine]	151 nM	–	5.54 nM	–
C/C=C/c1cc(N2CCN(CC)CC2)cc(-c2ccccc2Cl)c1Cl [Example 204]	187 nM	–	14.4 nM	–
CCS(=O)(=O)c1cc(N2CCN(Cc3ccccn3)CC2)cc(-c2ccc(F)cc2)c1OC [Example 199, 1-(2-Pyridylmethyl)-4-[3-(4-fluorophenyl)-4-methoxy-5-ethanesulfonyl]phenylpiperazine]	63.2 nM	–	51.5 nM	–
CC[C@H](F)c1cc(N2CCN(C)CC2)cc(-c2ccccc2CF)c1Cl [Example 210, 1-Methyl-4-{3-(2-fluoromethylphenyl)-4-chloro-5-[1-(S)-fluoropropyl]}phenylpiperazine]	6.25 nM	–	16.1 nM	–
CC[C@@H](F)c1cc(N2CCN(CC)CC2)cc(-c2ccccc2C(F)(F)F)c1Cl [Example 216, 1-Ethyl-4-{3-(2-trifluoromethylphenyl)-4-chloro-5-[1-(R)-fluoropropyl]}phenylpiperazine]	79 nM	–	11.3 nM	–
CCC(F)c1cc(N2CCN(CCO)CC2)cc(-c2ccccc2Cl)c1Cl (centres unmarked) [Example 23, 1-(2-Hydroxyethyl)-4-[3-(2-chlorophenyl)-4-chloro-5-(1-fluoropropyl)]phenylpiperazine]	51.2 nM	–	7.22 nM	–
CCc1ccccc1-c1cc(N2CCN(CCO)CC2)cc(C(F)CC)c1Cl (centres unmarked) [Example 218, 1-(2-Hydroxyethyl)-4-[3-(2-ethylphenyl)-4-chloro-5-(1-fluoropropyl)]phenylpiperazine]	30.1 nM	–	5.39 nM	–
